Assay results reported in US20220281848A1, “PYRAZOLE-SUBSTITUTED PYRROLIDINONES AS HERBICIDES” (FMC Corporation, priority 2019, published 2022).

Test system: plants
Assay: Test D pre-emergence, other plants of Tables D1 and D3
Type: in vivo
Details: for damage to plant (100=total damage to plant; 0=no damage to plant), ABUTH / damage to plant (100=total damage to plant; 0=no damage to plant), BIDPI / damage to plant (100=total damage to plant; 0=no damage to plant), BRAPL / damage to plant (100=total damage to plant; 0=no damage to plant), CYPES / damage to plant (100=total damage to plant; 0=no damage to plant), DIGSA / damage to plant (100=total damage to plant; 0=no damage to plant), ECHCG / damage to plant (100=total damage to plant; 0=no damage to plant), ELEIN / damage to plant (100=total damage to plant; 0=no damage to plant), EPHHL / damage to plant (100=total damage to plant; 0=no damage to plant), GLXMA / damage to plant (100=total damage to plant; 0=no damage to plant), IPOHE / damage to plant (100=total damage to plant; 0=no damage to plant), ORYSA / damage to plant (100=total damage to plant; 0=no damage to plant), PANMI / damage to plant (100=total damage to plant; 0=no damage to plant), SETFA / damage to plant (100=total damage to plant; 0=no damage to plant), SIDSP / damage to plant (100=total damage to plant; 0=no damage to plant), SORVU: preemergent, 20 DAA
Procedure, shortened: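 Seeds treated with herbicide safener; sown in soil; glasshouse, 16 h light, 65% humidity. Sprayed day 1 (pre) or ~day 12 (post). Spray in 0.2% v/v adjuvant. Scored 0–100 damage: 20 DAA pre, 15 d post.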

[1] = pre-emergence, rate 15, 20 DAA, 100=total damage, 0=no damage

CCn1nc([C@H]2CN(C)C(=O)[C@@H]2C(=O)Nc2cccc(F)c2F)c2ccc(F)cc21 [Compound 4]
20: damage to plant (100=total damage to plant; 0=no damage to plant), PANMI (rate 250)
90: damage to plant (100=total damage to plant; 0=no damage to plant), BRAPL (rate 250) | damage to plant (100=total damage to plant; 0=no damage to plant), BRAPL (rate 500) | damage to plant (100=total damage to plant; 0=no damage to plant), DIGSA (rate 130) | damage to plant (100=total damage to plant; 0=no damage to plant), DIGSA (rate 250) | damage to plant (100=total damage to plant; 0=no damage to plant), DIGSA (rate 500) | damage to plant (100=total damage to plant; 0=no damage to plant), ECHCG (rate 130) | damage to plant (100=total damage to plant; 0=no damage to plant), ECHCG (rate 250) | damage to plant (100=total damage to plant; 0=no damage to plant), ECHCG (rate 500) | damage to plant (100=total damage to plant; 0=no damage to plant), SETFA (rate 250) | damage to plant (100=total damage to plant; 0=no damage to plant), SETFA (rate 500)
60: damage to plant (100=total damage to plant; 0=no damage to plant), BRAPL (rate 60) | damage to plant (100=total damage to plant; 0=no damage to plant), DIGSA (rate 30)
80: damage to plant (100=total damage to plant; 0=no damage to plant), BRAPL (rate 130) | damage to plant (100=total damage to plant; 0=no damage to plant), DIGSA (rate 60) | damage to plant (100=total damage to plant; 0=no damage to plant), ECHCG (rate 60) | damage to plant (100=total damage to plant; 0=no damage to plant), SETFA (rate 130)
70: damage to plant (100=total damage to plant; 0=no damage to plant), SETFA (rate 30) | damage to plant (100=total damage to plant; 0=no damage to plant), SETFA (rate 60)
50: damage to plant (100=total damage to plant; 0=no damage to plant), SORVU (rate 500)
10: damage to plant (100=total damage to plant; 0=no damage to plant), ELEIN (rate 250) | damage to plant (100=total damage to plant; 0=no damage to plant), ELEIN (rate 500) | damage to plant (100=total damage to plant; 0=no damage to plant), EPHHL (rate 500) | damage to plant (100=total damage to plant; 0=no damage to plant), IPOHE (rate 500) | damage to plant (100=total damage to plant; 0=no damage to plant), SETFA (rate 15) | damage to plant (100=total damage to plant; 0=no damage to plant), SORVU (rate 60) | damage to plant (100=total damage to plant; 0=no damage to plant), SORVU (rate 130)
0: damage to plant (100=total damage to plant; 0=no damage to plant), ABUTH (rate 15) | damage to plant (100=total damage to plant; 0=no damage to plant), ABUTH (rate 30) | damage to plant (100=total damage to plant; 0=no damage to plant), ABUTH (rate 60) | damage to plant (100=total damage to plant; 0=no damage to plant), ABUTH (rate 130) | damage to plant (100=total damage to plant; 0=no damage to plant), ABUTH (rate 250) | damage to plant (100=total damage to plant; 0=no damage to plant), ABUTH (rate 500) | damage to plant (100=total damage to plant; 0=no damage to plant), BIDPI (rate 15) | damage to plant (100=total damage to plant; 0=no damage to plant), BIDPI (rate 30) | damage to plant (100=total damage to plant; 0=no damage to plant), BIDPI (rate 60) | damage to plant (100=total damage to plant; 0=no damage to plant), BIDPI (rate 130) | damage to plant (100=total damage to plant; 0=no damage to plant), BIDPI (rate 250) | damage to plant (100=total damage to plant; 0=no damage to plant), BIDPI (rate 500) | damage to plant (100=total damage to plant; 0=no damage to plant), CYPES (rate 15) | damage to plant (100=total damage to plant; 0=no damage to plant), CYPES (rate 30) | damage to plant (100=total damage to plant; 0=no damage to plant), CYPES (rate 60) | damage to plant (100=total damage to plant; 0=no damage to plant), CYPES (rate 130) | damage to plant (100=total damage to plant; 0=no damage to plant), CYPES (rate 250) | damage to plant (100=total damage to plant; 0=no damage to plant), CYPES (rate 500) | damage to plant (100=total damage to plant; 0=no damage to plant), DIGSA (rate 15) | damage to plant (100=total damage to plant; 0=no damage to plant), ECHCG (rate 15) | damage to plant (100=total damage to plant; 0=no damage to plant), ELEIN (rate 15) | damage to plant (100=total damage to plant; 0=no damage to plant), ELEIN (rate 30) | damage to plant (100=total damage to plant; 0=no damage to plant), EPHHL (rate 15) | damage to plant (100=total damage to plant; 0=no damage to plant), EPHHL (rate 30) | damage to plant (100=total damage to plant; 0=no damage to plant), EPHHL (rate 60) | damage to plant (100=total damage to plant; 0=no damage to plant), EPHHL (rate 130) | damage to plant (100=total damage to plant; 0=no damage to plant), EPHHL (rate 250) | damage to plant (100=total damage to plant; 0=no damage to plant), GLXMA (rate 15) | damage to plant (100=total damage to plant; 0=no damage to plant), GLXMA (rate 30) | damage to plant (100=total damage to plant; 0=no damage to plant), GLXMA (rate 60) | damage to plant (100=total damage to plant; 0=no damage to plant), GLXMA (rate 130) | damage to plant (100=total damage to plant; 0=no damage to plant), GLXMA (rate 250) | damage to plant (100=total damage to plant; 0=no damage to plant), GLXMA (rate 500) | damage to plant (100=total damage to plant; 0=no damage to plant), IPOHE (rate 15) | damage to plant (100=total damage to plant; 0=no damage to plant), IPOHE (rate 30) | damage to plant (100=total damage to plant; 0=no damage to plant), IPOHE (rate 60) | damage to plant (100=total damage to plant; 0=no damage to plant), IPOHE (rate 130) | damage to plant (100=total damage to plant; 0=no damage to plant), IPOHE (rate 250) | damage to plant (100=total damage to plant; 0=no damage to plant), ORYSA (rate 15) | damage to plant (100=total damage to plant; 0=no damage to plant), ORYSA (rate 30) | damage to plant (100=total damage to plant; 0=no damage to plant), ORYSA (rate 60) | damage to plant (100=total damage to plant; 0=no damage to plant), ORYSA (rate 130) | damage to plant (100=total damage to plant; 0=no damage to plant), ORYSA (rate 250) | damage to plant (100=total damage to plant; 0=no damage to plant), ORYSA (rate 500) | damage to plant (100=total damage to plant; 0=no damage to plant), PANMI (rate 15) | damage to plant (100=total damage to plant; 0=no damage to plant), PANMI (rate 30) | damage to plant (100=total damage to plant; 0=no damage to plant), PANMI (rate 60) | damage to plant (100=total damage to plant; 0=no damage to plant), PANMI (rate 130) | damage to plant (100=total damage to plant; 0=no damage to plant), SIDSP (rate 15) | damage to plant (100=total damage to plant; 0=no damage to plant), SIDSP (rate 30) | damage to plant (100=total damage to plant; 0=no damage to plant), SIDSP (rate 60) | damage to plant (100=total damage to plant; 0=no damage to plant), SIDSP (rate 500) | damage to plant (100=total damage to plant; 0=no damage to plant), SORVU (rate 15) | damage to plant (100=total damage to plant; 0=no damage to plant), SORVU (rate 30) | damage to plant, ALOMY [1] | damage to plant, AVEFA [1]
40: damage to plant (100=total damage to plant; 0=no damage to plant), BRAPL (rate 15) | damage to plant (100=total damage to plant; 0=no damage to plant), BRAPL (rate 30) | damage to plant (100=total damage to plant; 0=no damage to plant), ECHCG (rate 30) | damage to plant (100=total damage to plant; 0=no damage to plant), PANMI (rate 500) | damage to plant (100=total damage to plant; 0=no damage to plant), SORVU (rate 250)
